Reference: patent US20210214406A1, “AMYLOSPHEROID (ASPD)-LIKE STRUCTURE AND PHARMACEUTICAL COMPOSITION” (TAO HEALTH LIFE PHARMA CO., LTD., priority 2016, published 2021)

Legend:
old cynomolgus monkey = test: Subcutaneous immunization of old cynomolgus monkey with ASPD; assay type: in vivo
[1] = biological target: anti-ASPD polyclonal antibody (rpASD1); test: Dissociation constant with rpASD1 antibody by surface plasmon resonance; assay type: binding, rabbit; conditions: ASPD immobilized as ligand, rpASD1 as analyte, SPR; result in words
[2] = Storage stability at −80° C. (calibration curve slope in sandwich ELISA with two ASPD-specific antibodies); assay type: physicochemical; conditions: stored at −80° C. for 0 month, 3 months, and 6 months
Protocol: A cell secreted-type ASPD structure obtained by expressing hAPP695-sw-G33I of Test Example 14 was stored at −80° C. for 0 month, 3 months, and 6 months. The samples thus obtained were subjected to measurement performed with a sandwich ELISA using two types of ASPD-specific antibodies (neutralizing antibodies) to prepare a calibration curve.

[3] = tested on: New Zealand white rabbits; test: Immunogenicity of synthetic ASPD in rabbits (serum dot blot); assay type: in vivo, rabbit; conditions: rabbits immunized six times with 100 μg; Freund's adjuvant, aluminum hydroxide adjuvant, or no adjuvant
Protocol: New Zealand white rabbits (3 per each condition) were immunized six times with 100 μg of synthetic ASPD using Freund's adjuvant, aluminum hydroxide adjuvant, and no adjuvant. Thereafter, the whole blood was collected and the reactivity to the synthetic ASPD in serum was evaluated by dot blot.

dissociation constant (KD) / reactivity to rpASD1 [1]: equivalent
Substance: synthetic ASPD: in vitro synthesized spherical Aß assembly produced by slowly stirring a liquid containing wild type Aß1-42
brain glucose metabolism (neural activity) (old cynomolgus monkey): increased
storage stability (slope of primary regression line of ELISA calibration curve) [2]: low storage stability
reactivity to the synthetic ASPD in serum (dot blot) [3]: sufficient reactivity was obtained in all the rabbits even without using adjuvant
